From PubChem BioAssay AID1745844 (Carcinogenic Potency Database (CPDB), 2022)
Active and inactive are the calls of the source. How the calls were made is not given here.

Tested on: rodent lifetime carcinogenesis bioassay, tumor incidence TD50
Assay: carcinogenic potency in animals, long-term in vivo studies, CPDB compilation (AID 1745844)

`Cc1c(N(C)C)c(=O)n(-c2ccccc2)n1C` was tested, and the carcinogen call (mouse, strain B6C3F1, females, in drinking water, site: any site (literature study), lesion: one or several types, types not named, dosed 100 weeks, study length 104 weeks) was “negative (inactive)”, the TD50 (mouse, strain B6C3F1, females, in drinking water, site: liver, lesion: hepatocellular adenoma, dosed 100 weeks, study length 104 weeks) was 6150 mg/kg/day (inactive) and the carcinogen call (mouse, strain B6C3F1, females, in drinking water, site: liver, lesion: hepatocellular carcinoma, dosed 100 weeks, study length 104 weeks) was “negative (inactive)”. For the same compound, the carcinogen call (mouse, strain B6C3F1, females, in drinking water, site: lung, lesion: alveolar/bronchiolar adenoma, dosed 100 weeks, study length 104 weeks) was “negative (inactive)”, the TD50 (mouse, strain B6C3F1, females, in drinking water, site: lung, lesion: alveolar/bronchiolar carcinoma, dosed 100 weeks, study length 104 weeks) was 6540 mg/kg/day (inactive) and the TD50 (mouse, strain B6C3F1, males, in drinking water, site: any site (literature study), lesion: one or several types, types not named, dosed 100 weeks, study length 104 weeks) was 156 mg/kg/day (inactive). The TD50 (mouse, strain B6C3F1, males, in drinking water, site: liver, lesion: hepatocellular adenoma, dosed 100 weeks, study length 104 weeks) was 683 mg/kg/day (inactive), the TD50 (mouse, strain B6C3F1, males, in drinking water, site: liver, lesion: hepatocellular carcinoma, dosed 100 weeks, study length 104 weeks) was 5390 mg/kg/day (inactive) and the TD50 (mouse, strain B6C3F1, males, in drinking water, site: lung, lesion: alveolar/bronchiolar adenoma, dosed 100 weeks, study length 104 weeks) was 1480 mg/kg/day (inactive). For the same compound, the carcinogen call (mouse, strain B6C3F1, males, in drinking water, site: lung, lesion: alveolar/bronchiolar carcinoma, dosed 100 weeks, study length 104 weeks) was “negative (inactive)”.
With `C[N+](C)(C)CCCl` the TD50 (mouse, strain B6AKF1, females, oral dosing, site: any site (literature study), lesion: several types, types named in the paper, dosed 76 weeks, study length 76 weeks) was 33.5 mg/kg/day, the TD50 (mouse, strain B6AKF1, males, oral dosing, site: any site (literature study), lesion: several types, types named in the paper, dosed 76 weeks, study length 76 weeks) was 21.3 mg/kg/day and the TD50 (mouse, strain B6AKF1, males, oral dosing, site: liver, lesion: hepatoma, dosed 76 weeks, study length 76 weeks) was 11.4 mg/kg/day. The carcinogen call (mouse, strain B6C3F1, females, in feed, site: any site (literature study), lesion: several types, types named in the paper, dosed 102 weeks, study length 102 weeks) was “negative (inactive)”, the TD50 (mouse, strain B6C3F1, females, oral dosing, site: any site (literature study), lesion: several types, types named in the paper, dosed 76 weeks, study length 76 weeks) was 57.4 mg/kg/day and the TD50 (mouse, strain B6C3F1, males, in feed, site: any site (literature study), lesion: several types, types named in the paper, dosed 102 weeks, study length 102 weeks) was 3240 mg/kg/day (inactive). For the same compound, the TD50 (mouse, strain B6C3F1, males, in feed, site: liver, lesion: hepatocellular adenoma + hepatocellular carcinoma + neoplastic nodule, dosed 102 weeks, study length 102 weeks) was 599 mg/kg/day, the TD50 (mouse, strain B6C3F1, males, oral dosing, site: any site (literature study), lesion: several types, types named in the paper, dosed 76 weeks, study length 76 weeks) was 5.19 mg/kg/day and the TD50 (mouse, strain B6C3F1, males, oral dosing, site: liver, lesion: hepatoma, dosed 76 weeks, study length 76 weeks) was 9.38 mg/kg/day. The carcinogen call (rat, strain Fischer 344, females, in feed, site: any site (literature study), lesion: several types, types named in the paper, dosed 108 weeks, study length 108 weeks) was “negative (inactive)”, the TD50 (rat, strain Fischer 344, females, in feed, site: liver, lesion: hepatocellular adenoma + hepatocellular carcinoma + neoplastic nodule, dosed 108 weeks, study length 108 weeks) was 8090 mg/kg/day and the TD50 (rat, strain Fischer 344, males, in feed, site: any site (literature study), lesion: several types, types named in the paper, dosed 108 weeks, study length 108 weeks) was 3360 mg/kg/day. The TD50 (rat, strain Fischer 344, males, in feed, site: pancreatic islets, lesion: islet-cell adenoma, dosed 108 weeks, study length 108 weeks) was 458 mg/kg/day (inactive).
In the case of `C/C=C(/C)C(=O)O[C@H]1CCN2CC=C(COC(=O)[C@@](O)([C@H](C)OC)C(C)(C)O)[C@H]12`, the TD50 (rat, strain Fischer 344, females, in feed, site: any site (literature study), lesion: several types, types named in the paper, dosed 92 weeks, study length 104 weeks) is reported as 0.102 mg/kg/day, the TD50 (rat, strain Fischer 344, females, in feed, site: liver + multiple organs, lesion: adenoma, NOS + angiosarcoma + hepatocellular carcinoma + granulocytic leukemia + leukemia + lymphocytic leukemia + lymphoma + undiffer, dosed 92 weeks, study length 104 weeks) is reported as 0.141 mg/kg/day and the TD50 (rat, strain Fischer 344, females, in feed, site: liver, lesion: adenoma, NOS + hepatocellular carcinoma, dosed 92 weeks, study length 104 weeks) is reported as 0.453 mg/kg/day. The TD50 (rat, strain Fischer 344, females, in feed, site: liver, lesion: angiosarcoma, dosed 92 weeks, study length 104 weeks) was 0.355 mg/kg/day, the TD50 (rat, strain Fischer 344, females, in feed, site: liver, lesion: hepatocellular adenoma + hepatocellular carcinoma + neoplastic nodule, dosed 92 weeks, study length 104 weeks) was 22.7 mg/kg/day and the TD50 (rat, strain Fischer 344, females, in feed, site: multiple organs, lesion: granulocytic leukemia + lymphocytic leukemia + undifferentiated leukemia, dosed 92 weeks, study length 104 weeks) was 0.387 mg/kg/day. The TD50 (rat, strain Fischer 344, females, in feed, site: multiple organs, lesion: leukemia + lymphoma, dosed 92 weeks, study length 104 weeks) was 0.325 mg/kg/day, the TD50 (rat, strain Fischer 344, males, i.p., site: any site (literature study), lesion: several types, types named in the paper, dosed 56 weeks, study length 76 weeks) was 0.152 mg/kg/day and the TD50 (rat, strain Fischer 344, males, i.p., site: liver, lesion: hepatocellular carcinoma, dosed 56 weeks, study length 76 weeks) was 0.397 mg/kg/day. The TD50 (rat, strain Fischer 344, males, i.p., site: liver, lesion: several types, types named in the paper, dosed 56 weeks, study length 76 weeks) was 0.341 mg/kg/day, the TD50 (rat, strain Fischer 344, males, i.p., site: lung, lesion: adenoma, dosed 56 weeks, study length 76 weeks) was 1.33 mg/kg/day and the TD50 (rat, strain Fischer 344, males, i.p., site: skin, lesion: squamous-cell carcinoma, dosed 56 weeks, study length 76 weeks) was 0.794 mg/kg/day. The TD50 (rat, strain Fischer 344, males, i.p., site: small intestine, lesion: adenocarcinoma, dosed 56 weeks, study length 76 weeks) was 2.73 mg/kg/day, the TD50 (rat, strain Fischer 344, males, in feed, site: all sites, lesion: leukemia + lymphoma, dosed 98 weeks, study length 104 weeks) was 0.514 mg/kg/day and the TD50 (rat, strain Fischer 344, males, in feed, site: any site (literature study), lesion: several types, types named in the paper, dosed 55 weeks, study length 59 weeks) was 0.217 mg/kg/day. The TD50 (rat, strain Fischer 344, males, in feed, site: any site (literature study), lesion: several types, types named in the paper, dosed 98 weeks, study length 104 weeks) was 0.152 mg/kg/day, the TD50 (rat, strain Fischer 344, males, in feed, site: liver, lesion: adenoma, NOS + angiosarcoma + hepatocellular carcinoma, dosed 98 weeks, study length 104 weeks) was 0.25 mg/kg/day and the TD50 (rat, strain Fischer 344, males, in feed, site: liver, lesion: adenoma, NOS + hepatocellular carcinoma, dosed 98 weeks, study length 104 weeks) was 0.908 mg/kg/day. It also gave a TD50 (rat, strain Fischer 344, males, in feed, site: liver, lesion: angiosarcoma, dosed 55 weeks, study length 59 weeks) of 0.688 mg/kg/day, a TD50 (rat, strain Fischer 344, males, in feed, site: liver, lesion: angiosarcoma, dosed 98 weeks, study length 104 weeks) of 0.355 mg/kg/day and a TD50 (rat, strain Fischer 344, males, in feed, site: liver, lesion: carcinoma, dosed 55 weeks, study length 59 weeks) of 0.954 mg/kg/day. The TD50 (rat, strain Fischer 344, males, in feed, site: liver, lesion: hepatocellular adenoma + hepatocellular carcinoma + neoplastic nodule, dosed 98 weeks, study length 104 weeks) was 7.43 mg/kg/day.
`CC1CO1` (stereo unspecified) gave a TD50 (mouse, strain B6C3F1, females, inhaled, site: all sites, lesion: hemangioma + hemangiosarcoma, dosed 103 weeks, study length 104 weeks) of 863 mg/kg/day, a TD50 (mouse, strain B6C3F1, females, inhaled, site: all sites, lesion: hemangioma, dosed 103 weeks, study length 104 weeks) of 1810 mg/kg/day and a TD50 (mouse, strain B6C3F1, females, inhaled, site: all sites, lesion: hemangiosarcoma, dosed 103 weeks, study length 104 weeks) of 1610 mg/kg/day. The TD50 (mouse, strain B6C3F1, females, inhaled, site: any site (literature study), lesion: several types, types named in the paper, dosed 103 weeks, study length 104 weeks) was 226 mg/kg/day, the TD50 (mouse, strain B6C3F1, females, inhaled, site: liver, lesion: hepatocellular adenoma + hepatocellular carcinoma + neoplastic nodule, dosed 103 weeks, study length 104 weeks) was 979 mg/kg/day and the TD50 (mouse, strain B6C3F1, females, inhaled, site: lung, lesion: alveolar/bronchiolar adenoma + alveolar/bronchiolar carcinoma, dosed 103 weeks, study length 104 weeks) was 588 mg/kg/day. It also gave a TD50 (mouse, strain B6C3F1, females, inhaled, site: lung, lesion: alveolar/bronchiolar adenoma, dosed 103 weeks, study length 104 weeks) of 588 mg/kg/day, a TD50 (mouse, strain B6C3F1, females, inhaled, site: mammary gland, lesion: adenocarcinoma + adenosquamous carcinoma, dosed 103 weeks, study length 104 weeks) of 1260 mg/kg/day and a TD50 (mouse, strain B6C3F1, females, inhaled, site: mammary gland, lesion: adenosquamous carcinoma, dosed 103 weeks, study length 104 weeks) of 2770 mg/kg/day. It also gave a TD50 (mouse, strain B6C3F1, females, inhaled, site: nasal cavity, lesion: hemangioma + hemangiosarcoma, dosed 103 weeks, study length 104 weeks) of 1210 mg/kg/day, a TD50 (mouse, strain B6C3F1, females, inhaled, site: nasal cavity, lesion: hemangioma, dosed 103 weeks, study length 104 weeks) of 2020 mg/kg/day and a TD50 (mouse, strain B6C3F1, males, inhaled, site: all sites, lesion: hemangioma + hemangiosarcoma, dosed 103 weeks, study length 104 weeks) of 753 mg/kg/day. The TD50 (mouse, strain B6C3F1, males, inhaled, site: any site (literature study), lesion: several types, types named in the paper, dosed 103 weeks, study length 104 weeks) was 722 mg/kg/day, the TD50 (mouse, strain B6C3F1, males, inhaled, site: nasal cavity, lesion: hemangioma + hemangiosarcoma, dosed 103 weeks, study length 104 weeks) was 732 mg/kg/day and the TD50 (mouse, strain B6C3F1, males, inhaled, site: nasal cavity, lesion: hemangioma, dosed 103 weeks, study length 104 weeks) was 1470 mg/kg/day. It also gave a TD50 (mouse, strain B6C3F1, males, inhaled, site: nasal cavity, lesion: hemangiosarcoma, dosed 103 weeks, study length 104 weeks) of 1610 mg/kg/day, a TD50 (rat, strain Fischer 344, females, inhaled, site: any site (literature study), lesion: several types, types named in the paper, dosed 103 weeks, study length 104 weeks) of 124 mg/kg/day and a TD50 (rat, strain Fischer 344, females, inhaled, site: cervix uteri + uterus, lesion: endometrial stromal polyp + endometrial stromal sarcoma, dosed 103 weeks, study length 104 weeks) of 156 mg/kg/day. It also gave a TD50 (rat, strain Fischer 344, females, inhaled, site: nasal cavity, lesion: papillary adenoma, dosed 103 weeks, study length 104 weeks) of 732 mg/kg/day, a TD50 (rat, strain Fischer 344, males, inhaled, site: adrenal gland, lesion: pheochromocytoma, dosed 101 weeks, study length 104 weeks) of 35.1 mg/kg/day and a TD50 (rat, strain Fischer 344, males, inhaled, site: any site (literature study), lesion: several types, types named in the paper, dosed 103 weeks, study length 104 weeks) of 220 mg/kg/day. It also gave a TD50 (rat, strain Fischer 344, males, inhaled, site: liver, lesion: hepatocellular adenoma + hepatocellular carcinoma + neoplastic nodule, dosed 103 weeks, study length 104 weeks) of 528 mg/kg/day, a TD50 (rat, strain Fischer 344, males, inhaled, site: liver, lesion: hepatocellular carcinoma, dosed 101 weeks, study length 104 weeks) of 2960 mg/kg/day and a TD50 (rat, strain Fischer 344, males, inhaled, site: nasal cavity, lesion: papillary adenoma, dosed 103 weeks, study length 104 weeks) of 826 mg/kg/day. For the same compound, the TD50 (rat, strain Sprague-Dawley, females, by gavage, site: forestomach, lesion: squamous-cell carcinoma, dosed 109 weeks, study length 150 weeks) was 44.3 mg/kg/day, the TD50 (rat, strain Sprague-Dawley, females, by gavage, site: stomach, lesion: several types, types named in the paper, dosed 109 weeks, study length 150 weeks) was 39.5 mg/kg/day and the TD50 (rat, strain Wistar-random, females, inhaled, site: any site (literature study), lesion: malignant tumor, dosed 123 weeks, study length 123 weeks) was 150 mg/kg/day. For the same compound, the TD50 (rat, strain Wistar-random, females, inhaled, site: any site (literature study), lesion: one or several types, types not named, dosed 123 weeks, study length 123 weeks) was 25.7 mg/kg/day, the TD50 (rat, strain Wistar-random, females, inhaled, site: liver, lesion: cholangioma, dosed 123 weeks, study length 123 weeks) was 2460 mg/kg/day and the TD50 (rat, strain Wistar-random, females, inhaled, site: mammary gland, lesion: adenocarcinoma, dosed 123 weeks, study length 123 weeks) was 813 mg/kg/day. For the same compound, the TD50 (rat, strain Wistar-random, females, inhaled, site: mammary gland, lesion: fibroadenoma, dosed 123 weeks, study length 123 weeks) was 92.6 mg/kg/day, the TD50 (rat, strain Wistar-random, males, inhaled, site: any site (literature study), lesion: malignant tumor, dosed 124 weeks, study length 124 weeks) was 101 mg/kg/day and the TD50 (rat, strain Wistar-random, males, inhaled, site: any site (literature study), lesion: one or several types, types not named, dosed 124 weeks, study length 124 weeks) was 79.3 mg/kg/day. For the same compound, the TD50 (rat, strain Wistar-random, males, inhaled, site: respiratory system, lesion: carcinoma, dosed 124 weeks, study length 124 weeks) was 896 mg/kg/day.
For `CN(N=O)c1ccc(N=O)cc1`, the TD50 (rat, strain CB, males, i.p., site: liver, lesion: hepatoma, dosed 26 weeks, study length 86 weeks) was 1.5 mg/kg/day (inactive) and the TD50 (rat, strain CB, males, i.p., site: peritoneal cavity, lesion: several types, types named in the paper, dosed 26 weeks, study length 86 weeks) was 1.3 mg/kg/day.
